Measured values reported in patent US20250381157A1, “ANTIMICROBIAL COMPOUNDS” (priority 2022, published 2025).
Read-outs that look alike come from different tables or passages of the source.

Tests used:
E. coli = E. coli mouse infection model; format: in vivo; settings: for translocation of bacteria to liver and spleen: oral, CFU in liver
Description: FIG. 1: E. coli mouse infection model. CFU measured in tissue: colon, ileum, liver, spleen. Statistical analysis was performed by comparing all conditions to the vehicle-treated group and using one-way ANOVA with Dunnett post-hoc test, *** p<0.001, **** p<0.0001, ns non-significant.
Compound 1 was administered orally to a mouse model of E. coli infection at 25 mg/kg, 73.5 mk/kg and 50 mg/kg. Compound 1 achieved the study goal of lowering Colony Unit Forming count in colon tissue by a factor of 3 log10 compared to vehicle treated animals.
• Infecting mice through oral administration of a vancomycin resistant pathogenic strain of E. coli simplified the process of determining the mechanism(s) by which compound 1 exerts its effects on the pathogenic process. […] This is evidenced by the fact that there still are viable vancomycin resistant E. coli present in the colon and ileum at the conclusion of the experiment (FIG. 1). […] It is therefore unlikely that compound 1 is inhibiting E. coli translocation to these organs solely due to its ability to stimulate production of antibacterial peptides. […] That experiment was performed in the presence of cyclophosphamide, which is known to cause febrile neutropenia due to translocation of bacteria to vital organs. […] First is the ability of the compound 1 to attenuate the growth of bacteria and secondly is its ability to inhibit the bacterial translocation.

Caco-2 cells = assay: Caco-2 cell study (permeability, efflux); format: in vitro ADME
From the text: Caco-2 cells are used as a model of the intestinal epithelial barrier.

Plasma stability Rat = format: in vitro ADME
[1] = Rat pharmacokinetics (IV, PO); format: in vivo
recombinant human HDAC3 = target: T1, recombinant human HDAC3 (Homo sapiens, UniProt O15379); assay: HDAC3 in-vitro enzymatic assay; format: biochemical
T1 construct: purchased BPS 50003
Description: (§1) All of the compounds were dissolved in DMSO. A series of dilutions of the compounds were prepared with 10% DMSO in HDAC assay buffer and 5 μl of the dilution was added to a 50 μl reaction so that the final concentration of DMSO was 1% in all of reactions. The compounds were pre-incubated in duplicate at RT for 30 minutes in a mixture containing HDAC assay buffer, 5 μg BSA, HDAC enzyme and a test compound. After 30 minutes, the enzymatic reactions were initiated by the addition of HDAC substrate to a final concentration of 20 μM or 2 μM. The enzymatic reaction proceeded for 30 minutes at 37° C. After enzymatic reactions, 50 μl of 2×HDAC Developer was added to each well for the HDAC enzymes and the plate was incubated at room temperature for an additional 15 minutes. Fluorescence intensity was measured at an excitation of 360 nm and an emission of 460 nm using a Tecan Infinite M1000 microplate reader.
(§2) HDAC activity assays were performed in duplicates at each concentration. The fluorescent intensity data were analyzed using the computer software, Graphpad Prism. […] The percent activity in the presence of each compound was calculated according to the following equation: % activity=(F−Fb)/(Ft−Fb), where F=the fluorescent intensity in the presence of the compound. […] The IC50 value was determined by the concentration causing a half-maximal percent activity.

recombinant human HDAC5 = target: T2, recombinant human HDAC5 (Homo sapiens, UniProt Q9UQL6); assay: HDAC5 in-vitro enzymatic assay; format: biochemical
T2 construct: purchased BPS 50005
Description: as §1, §2

recombinant human HDAC8 = target: T3, recombinant human HDAC8 (Homo sapiens, UniProt Q9BY41); assay: HDAC8 in-vitro enzymatic assay; format: biochemical
T3 construct: purchased BPS 50008
T3 sequence (Q9BY41 1-377): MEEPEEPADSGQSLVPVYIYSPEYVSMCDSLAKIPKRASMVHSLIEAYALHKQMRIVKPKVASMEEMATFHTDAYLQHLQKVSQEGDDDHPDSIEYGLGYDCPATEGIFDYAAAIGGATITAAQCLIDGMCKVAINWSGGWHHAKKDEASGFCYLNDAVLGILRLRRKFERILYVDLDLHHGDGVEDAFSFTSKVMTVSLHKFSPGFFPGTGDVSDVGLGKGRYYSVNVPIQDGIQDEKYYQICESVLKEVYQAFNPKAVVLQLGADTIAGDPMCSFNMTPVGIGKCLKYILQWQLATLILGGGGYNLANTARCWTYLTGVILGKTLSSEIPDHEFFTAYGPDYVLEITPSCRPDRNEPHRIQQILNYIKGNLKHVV
Description: as §1, §2

recombinant human HDAC9 = target: T4, recombinant human HDAC9 (Homo sapiens, UniProt Q9UKV0); assay: HDAC9 in-vitro enzymatic assay; format: biochemical
T4 construct: purchased BPS 50009
Description: as §1, §2

in vivo = settings: mouse, po
[2] = Dose escalation toxicity and MTD in mouse; settings: in vivo

T1 sequence (O15379 whole entry): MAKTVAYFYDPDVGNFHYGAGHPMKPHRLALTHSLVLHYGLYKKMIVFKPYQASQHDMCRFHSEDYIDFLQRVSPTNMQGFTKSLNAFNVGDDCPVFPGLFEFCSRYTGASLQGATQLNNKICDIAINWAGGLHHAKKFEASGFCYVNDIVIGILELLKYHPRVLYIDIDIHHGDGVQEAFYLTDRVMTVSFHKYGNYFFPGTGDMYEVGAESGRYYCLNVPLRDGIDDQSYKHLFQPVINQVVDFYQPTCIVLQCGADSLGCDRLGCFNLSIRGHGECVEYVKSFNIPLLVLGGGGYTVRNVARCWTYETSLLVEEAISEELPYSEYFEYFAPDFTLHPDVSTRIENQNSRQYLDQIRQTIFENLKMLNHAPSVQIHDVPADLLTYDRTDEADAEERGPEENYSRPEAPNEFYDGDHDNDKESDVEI
T1 sequence (Q9Y618 395-489 partner limits assumed): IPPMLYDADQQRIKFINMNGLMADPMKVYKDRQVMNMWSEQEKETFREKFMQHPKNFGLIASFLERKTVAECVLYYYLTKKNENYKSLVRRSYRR
T2 sequence (Q9UQL6 whole entry): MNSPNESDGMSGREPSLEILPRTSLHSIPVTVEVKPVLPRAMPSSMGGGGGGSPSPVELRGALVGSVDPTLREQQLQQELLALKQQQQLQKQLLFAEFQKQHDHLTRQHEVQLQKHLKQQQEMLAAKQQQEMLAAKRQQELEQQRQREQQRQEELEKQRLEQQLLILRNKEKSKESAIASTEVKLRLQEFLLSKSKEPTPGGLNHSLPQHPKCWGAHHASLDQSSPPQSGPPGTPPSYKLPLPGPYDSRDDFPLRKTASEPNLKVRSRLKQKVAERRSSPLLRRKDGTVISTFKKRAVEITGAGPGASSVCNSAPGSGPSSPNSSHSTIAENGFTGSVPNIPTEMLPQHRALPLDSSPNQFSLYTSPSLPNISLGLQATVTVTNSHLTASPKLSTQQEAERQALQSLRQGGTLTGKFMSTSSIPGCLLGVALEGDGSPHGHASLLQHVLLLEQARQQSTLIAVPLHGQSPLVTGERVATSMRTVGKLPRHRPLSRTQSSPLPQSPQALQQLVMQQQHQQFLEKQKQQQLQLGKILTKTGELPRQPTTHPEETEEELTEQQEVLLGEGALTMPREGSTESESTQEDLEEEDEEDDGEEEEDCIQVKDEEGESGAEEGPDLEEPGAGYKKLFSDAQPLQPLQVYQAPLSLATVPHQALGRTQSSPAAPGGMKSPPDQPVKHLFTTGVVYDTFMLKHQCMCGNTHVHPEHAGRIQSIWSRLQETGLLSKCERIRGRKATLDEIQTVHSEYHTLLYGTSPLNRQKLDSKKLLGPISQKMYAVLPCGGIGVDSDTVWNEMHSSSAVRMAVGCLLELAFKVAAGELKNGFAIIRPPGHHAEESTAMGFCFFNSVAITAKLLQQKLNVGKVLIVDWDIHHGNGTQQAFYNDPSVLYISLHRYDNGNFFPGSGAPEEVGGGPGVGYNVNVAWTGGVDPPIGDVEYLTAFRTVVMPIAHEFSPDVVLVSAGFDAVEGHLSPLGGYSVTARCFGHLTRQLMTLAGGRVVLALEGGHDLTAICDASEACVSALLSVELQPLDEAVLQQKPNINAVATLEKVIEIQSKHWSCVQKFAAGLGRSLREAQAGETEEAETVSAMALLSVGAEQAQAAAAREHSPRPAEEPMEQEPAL
T4 sequence (Q9UKV0 whole entry): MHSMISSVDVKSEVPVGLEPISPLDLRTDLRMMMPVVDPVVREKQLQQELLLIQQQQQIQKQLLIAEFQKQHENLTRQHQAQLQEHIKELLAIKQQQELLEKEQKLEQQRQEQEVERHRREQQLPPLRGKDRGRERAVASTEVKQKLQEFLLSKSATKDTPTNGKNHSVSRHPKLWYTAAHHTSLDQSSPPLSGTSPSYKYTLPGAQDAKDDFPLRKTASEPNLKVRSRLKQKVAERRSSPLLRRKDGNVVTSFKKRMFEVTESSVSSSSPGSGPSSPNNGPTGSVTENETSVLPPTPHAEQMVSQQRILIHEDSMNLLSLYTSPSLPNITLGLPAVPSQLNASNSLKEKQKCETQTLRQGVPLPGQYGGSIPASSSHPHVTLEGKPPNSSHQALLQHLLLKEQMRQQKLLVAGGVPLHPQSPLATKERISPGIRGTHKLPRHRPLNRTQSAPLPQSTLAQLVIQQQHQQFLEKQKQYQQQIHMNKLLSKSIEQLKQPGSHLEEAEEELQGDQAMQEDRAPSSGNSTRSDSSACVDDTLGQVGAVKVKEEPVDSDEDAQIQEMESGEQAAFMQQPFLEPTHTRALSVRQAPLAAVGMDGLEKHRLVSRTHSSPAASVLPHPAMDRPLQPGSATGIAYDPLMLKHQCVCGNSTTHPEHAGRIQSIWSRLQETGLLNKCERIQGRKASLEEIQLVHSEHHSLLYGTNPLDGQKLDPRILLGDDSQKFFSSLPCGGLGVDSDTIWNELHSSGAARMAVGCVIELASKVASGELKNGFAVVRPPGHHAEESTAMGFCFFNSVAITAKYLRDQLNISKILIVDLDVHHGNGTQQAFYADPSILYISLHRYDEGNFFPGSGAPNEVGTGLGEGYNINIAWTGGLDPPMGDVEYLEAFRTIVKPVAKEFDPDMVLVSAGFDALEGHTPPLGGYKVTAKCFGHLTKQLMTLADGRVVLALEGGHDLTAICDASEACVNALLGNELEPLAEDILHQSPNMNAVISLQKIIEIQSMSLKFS

Q: Which results are given for C#CCOCC(=O)Nc1ccc(C(=O)Nc2ccccc2N)cc1 [Compound 1, N-(2-aminophenyl)-4-{2-[(prop-2-yn-1-yl)oxy]acetamido}benzamide]?
A: dose dependence of attenuation of E. coli growth in the colon and ileum (E. coli; FIG. 1): shows dose dependence; dose dependence of inhibition of vancomycin resistant E. coli translocation to the liver and spleen (E. coli; FIG. 1): not compound 1 dose dependent; lowering Colony Unit Forming count in colon tissue compared to vehicle treated animals (E. coli; administered orally at 25 mg/kg, 73.5 mk/kg and 50 mg/kg): 3 log10; E. coli burden in the intestines reduced compared to control (E. coli; colon and ileum, conclusion of the experiment): ~3 logs; translocation of bacteria to liver and spleen (E. coli): completely knocking out translocation; translocation of bacteria to liver and spleen (E. coli; listed as compound 1): totally inhibiting its translocation; Caco-2 Permeability A-B dir. (Caco-2 cells): High; Caco-2 Permeability A-B dir. (Caco-2 cells; listed as compound 1): high; Active efflux (Caco-2 cells; Caco-2): No; Plasma stability Rat (Plasma stability Rat): High; C_max IV - rat ([1]; IV): 177 µM; V-d IV - rat ([1]; IV): 0.565 L/kg; C_max PO - rat ([1]; PO): 3.3 µM; half-life ([1]; in vivo, PO, read-out: Elimination T½ (min) PO - rat): 34 min; half-life ([1]; in vivo, intravenous, PIV, read-out: Elimination T½ (min) PIV - rat): 66 min; bioavailability ([1]; in vivo, oral): 1%; IC50 (recombinant human HDAC3): ≤ 1 µM; inhibition at 1 µM (recombinant human HDAC3; @ 1 μM, read-out: Inhib. HDAC3): 61%; IC50 (recombinant human HDAC5): > 200 µM; Inhib. HDAC5 (recombinant human HDAC5; @ 200 μM): No Inhib. @ 200 μM; IC50 (recombinant human HDAC8): > 200 µM; inhibition at 200 µM (recombinant human HDAC8; @ 200 μM, read-out: Inhib. HDAC8): 42%; IC50 (recombinant human HDAC9): > 200 µM; Inhib. HDAC9 (recombinant human HDAC9; @ 200 μM): No Inhib. @ 200 μM; MTD at 7 days (in vivo; 7 Days PO once daily MTD - mouse): > 50 mg/kg; MTD at 7 days (in vivo; 7 Days PO twice daily MTD - mouse): 50 mg/kg; Dose Esc. Tox mouse iv ([2]; iv): 100 mg/kg; Dose Esc. Tox mouse PO ([2]; po): 50 mg/kg
